Values of other authors as cited in US8450379B2, “Methods for treating migraine” (Corcept Therapeutics, Inc., priority 2002, dated 2013).

Columns and labels:
[1] = target: T1, glucocorticoid (GR) receptors (Homo sapiens, UniProt P04150)
T1 sequence (P04150 1-777): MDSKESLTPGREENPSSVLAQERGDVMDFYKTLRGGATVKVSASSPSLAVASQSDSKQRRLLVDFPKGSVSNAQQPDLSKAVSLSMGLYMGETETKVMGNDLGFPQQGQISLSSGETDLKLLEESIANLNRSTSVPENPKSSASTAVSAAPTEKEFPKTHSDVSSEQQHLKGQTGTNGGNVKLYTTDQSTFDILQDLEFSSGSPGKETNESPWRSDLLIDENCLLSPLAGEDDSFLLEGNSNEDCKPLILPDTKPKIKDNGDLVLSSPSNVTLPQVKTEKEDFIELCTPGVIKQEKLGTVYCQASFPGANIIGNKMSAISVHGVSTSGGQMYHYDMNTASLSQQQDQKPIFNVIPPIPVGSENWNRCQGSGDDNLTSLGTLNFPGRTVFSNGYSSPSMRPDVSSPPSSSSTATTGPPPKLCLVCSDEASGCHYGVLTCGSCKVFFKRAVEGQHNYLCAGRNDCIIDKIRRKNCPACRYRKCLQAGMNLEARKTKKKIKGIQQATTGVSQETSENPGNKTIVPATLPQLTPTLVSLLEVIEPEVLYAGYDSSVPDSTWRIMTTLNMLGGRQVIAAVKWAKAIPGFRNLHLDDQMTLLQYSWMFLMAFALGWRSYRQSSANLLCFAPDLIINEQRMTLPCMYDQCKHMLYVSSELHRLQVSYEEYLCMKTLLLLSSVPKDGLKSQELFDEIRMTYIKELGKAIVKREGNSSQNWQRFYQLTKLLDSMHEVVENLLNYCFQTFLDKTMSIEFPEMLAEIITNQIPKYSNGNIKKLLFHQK

progesterone receptors = target: T2, progesterone receptors (Homo sapiens, UniProt P06401)
T2 sequence (P06401 1-933): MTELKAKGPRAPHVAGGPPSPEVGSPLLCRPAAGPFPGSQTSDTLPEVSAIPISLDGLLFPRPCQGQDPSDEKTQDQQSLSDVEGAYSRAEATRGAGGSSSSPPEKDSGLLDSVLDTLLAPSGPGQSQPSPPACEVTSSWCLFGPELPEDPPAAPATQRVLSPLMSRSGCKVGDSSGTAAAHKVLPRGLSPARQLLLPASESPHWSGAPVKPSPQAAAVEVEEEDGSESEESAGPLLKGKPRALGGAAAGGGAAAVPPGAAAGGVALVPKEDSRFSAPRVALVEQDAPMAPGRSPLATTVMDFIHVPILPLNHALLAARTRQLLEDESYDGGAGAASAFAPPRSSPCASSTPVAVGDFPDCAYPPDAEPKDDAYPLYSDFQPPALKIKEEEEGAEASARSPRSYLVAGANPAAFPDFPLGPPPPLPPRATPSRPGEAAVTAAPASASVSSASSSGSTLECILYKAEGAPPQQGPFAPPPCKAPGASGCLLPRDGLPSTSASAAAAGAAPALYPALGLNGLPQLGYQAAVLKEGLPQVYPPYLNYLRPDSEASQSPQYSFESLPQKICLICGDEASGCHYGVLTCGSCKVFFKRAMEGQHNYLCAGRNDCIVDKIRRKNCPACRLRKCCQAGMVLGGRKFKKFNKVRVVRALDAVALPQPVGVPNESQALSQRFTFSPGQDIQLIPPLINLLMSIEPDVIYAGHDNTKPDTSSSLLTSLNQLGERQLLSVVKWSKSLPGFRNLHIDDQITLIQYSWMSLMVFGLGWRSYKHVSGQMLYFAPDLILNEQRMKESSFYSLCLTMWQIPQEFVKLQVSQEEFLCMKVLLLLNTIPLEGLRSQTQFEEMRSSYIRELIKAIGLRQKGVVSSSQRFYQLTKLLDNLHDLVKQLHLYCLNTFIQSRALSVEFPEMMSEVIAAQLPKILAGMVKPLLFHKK

[2] = one study (Kawai)
[3] = target: T3, Mineralocorticoid receptors (MRs) (Homo sapiens, UniProt P08235); settings: MR versus GR
T3 sequence (P08235 1-984): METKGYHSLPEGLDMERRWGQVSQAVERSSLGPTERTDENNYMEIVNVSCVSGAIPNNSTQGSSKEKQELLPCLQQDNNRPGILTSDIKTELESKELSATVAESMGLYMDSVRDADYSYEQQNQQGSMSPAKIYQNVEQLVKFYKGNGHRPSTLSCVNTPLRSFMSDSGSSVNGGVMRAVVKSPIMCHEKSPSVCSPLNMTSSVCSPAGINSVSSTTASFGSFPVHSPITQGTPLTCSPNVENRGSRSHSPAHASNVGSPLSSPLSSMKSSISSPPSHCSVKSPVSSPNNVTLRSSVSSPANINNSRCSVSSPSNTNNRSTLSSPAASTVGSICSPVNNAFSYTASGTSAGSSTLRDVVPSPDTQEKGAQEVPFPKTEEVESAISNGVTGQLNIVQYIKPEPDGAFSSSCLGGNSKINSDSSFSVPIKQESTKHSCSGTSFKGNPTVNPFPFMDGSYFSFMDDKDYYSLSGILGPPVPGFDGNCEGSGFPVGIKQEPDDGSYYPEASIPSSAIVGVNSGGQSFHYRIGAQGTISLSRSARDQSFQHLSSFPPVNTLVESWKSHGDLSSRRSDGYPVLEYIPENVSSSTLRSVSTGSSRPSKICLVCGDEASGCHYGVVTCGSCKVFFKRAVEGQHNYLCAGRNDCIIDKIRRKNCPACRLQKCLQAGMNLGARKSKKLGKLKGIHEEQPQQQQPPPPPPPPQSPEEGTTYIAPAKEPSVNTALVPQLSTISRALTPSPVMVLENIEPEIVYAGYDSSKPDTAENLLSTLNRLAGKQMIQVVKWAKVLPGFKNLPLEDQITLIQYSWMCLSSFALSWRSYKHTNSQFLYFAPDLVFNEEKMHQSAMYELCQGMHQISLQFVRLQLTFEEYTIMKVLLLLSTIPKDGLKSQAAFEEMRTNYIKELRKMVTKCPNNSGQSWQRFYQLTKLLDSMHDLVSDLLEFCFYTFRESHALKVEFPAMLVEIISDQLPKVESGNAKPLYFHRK

Row | Compound | antagonism of glucocorticoid (GR) receptor [1] | antagonism of progesterone receptor (progesterone receptors) | fraction of the daily dose excreted in the urine [2] | affinity of MR for cortisol relative to GR binding of glucocorticoids [3]
1 | CC#C[C@]1(O)CC[C@H]2[C@@H]3CCC4=CC(=O)CCC4=C3[C@@H](c3ccc(OCCN(C)C)cc3)C[C@@]21C [RU009, 11β-(4-dimethylaminoethoxyphenyl)-17α-propynyl-17β-hydroxy-4,9-estradien-3-one] | GR antagonist effects |  |  | 
2 | CC#C[C@]1(O)CC[C@H]2[C@@H]3CCC4=CC(=O)CCC4=C3[C@@H](c3ccc(N(C)C)cc3)C[C@@]21C [Mifepristone, (11β,17β) 11[4 (dimethylamino)phenyl]-17 hydroxy-17 (1 propynyl)estra-4,9 dien-3 one] | powerful antagonist | powerful antagonist | less than 0.5 % of the daily dose | 
3 | C[C@]12CCC(=O)C=C1CC[C@@H]1[C@@H]2[C@@H](O)C[C@@]2(C)[C@H]1CC[C@]2(O)C(=O)CO [cortisol] |  |  |  | ten-fold higher affinity
